# Read-outs that look alike come from different tables or passages of the source.
# Columns and labels:
# CT-26 tumor cells [1] = assay: Antitumor activity in syngeneic CT26/Balb/C tumor model; format: in vivo, Balb/c mice; settings: for reduction of tumor growth: vs control animals
# Protocol: Tumor volume reduction by the test compounds was evaluated in a syngeneic CT26/Balb/C tumor model as described below. Balb/c mice were purchased from Vivo Bio Tech, Hyderabad, India, and housed in sterile conditions using an individually ventilated caging system manufactured by Citizen Industries Limited, Ahmedabad, India. Mice were quarantined for at least 7 days before experimentation.
# Mouse colorectal tumor forming cells, CT-26 cells (ATCC, USA), were cultured in DMEM and 10% FBS medium supplemented with lx non-essential amino acid (HiMedia) in an incubator maintained at 37QC with 95% humidity and 5% CO2. One million (1×10^6) live syngeneic CT-26 cells suspended in 0.2 ml of […] were injected subcutaneously in the right flank of each Balb/c mouse (age 6-8 weeks, weight: about 18-20 g) on day 1 under anesthesia. Eight to ten mice were used per experimental group. Subcutaneous cells formed localized tumors. Animals were visually inspected twice a day. Tumor measurements were initiated 7 days post injection using Vernier calipers. Tumor sizes at day 7 ranged typically from 80-150 mm^3. Tumor dimensions were subsequently measured every 3 to 4 days and tumor volume was determined. Assuming tumors to be ellipsoid, tumor volume was calculated using the formula: V=(D×d×d)/2
# Where D is longest diameter in mm, and d is shortest diameter in mm.
# When the average tumor volume in the mice reached 100-120 mm^3, tumor bearing mice were randomized for treatment with either test compound or vehicle alone. Test compounds were formulated generally in normal saline comprising Polyethylene Glycol (PEG400), Propylene glycol (PG) and Dimethyl Acetamide (DACM) at pH 4.5-5.0 and dosed orally at ranges 40-75 mg/kg (dose volume—5 mL/kg) twice a day. Solutions of the compounds were prepared immediately before dosing the animals. In general, tumor volume was measured at various times post-dosing from day 1 to day 34.
# A non-limiting example is provided. Tumor bearing mice were dosed orally twice a day at 40 mg/kg body weight with either vehicle control or test compound 2 formulated in 30% Polyethylene Glycol (PEG-400), 20% Propylene glycol (PG) in normal saline. Tumors were measured and tumor volumes were determined at 1, 4, 6, 9, 11, and 14 days after the first dose as described above. Animals were sacrificed on day 14. Tumor and blood samples were harvested for further analysis. Just prior to animal sacrifice, blood was drawn retro-orbitally into a tube containing 0.2% EDTA for plasma collection. The harvested tumors were weighed and snap frozen in liquid nitrogen immediately. Plasma KYN concentrations are measured for pharmacokinetic analysis using LC/MS/MS using an API4000 mass spectrometer (Applied Biosystems) coupled to a Shimadzu Prominence LC system fitted with a C18 column.
# [2] = target: Human indoleamine 2,3-dioxygenase-2 (hIDO2) (Homo sapiens (Human), UniProt Q6ZQW0); assay: In-vitro IDO2 enzyme assay; format: biochemical
# Source text: Human indoleamine 2,3-dioxygenase-2 (hIDO2) catalyzes the oxidative cleavage of the pyrrole ring of the indole nucleus of tryptophan to yield N-formylkynurenine which can be converted to kynurenine (KYN) by deformylation. hIDO2 with an C-terminal His tag (Sino Biological Inc (China)) was expressed in E. coli cells and the protein was purified using standard methods well known in the art. Unless otherwise stated, all materials were procured from Sigma Aldrich, Mo., USA.
# The assay monitoring the conversion of L-tryptophan to KYN was carried out as follows. hIDO2 (160 nM) was incubated with tryptophan (5000 04) in the presence of ascorbic acid (20 mM), methylene blue (10 04) and catalase (100 μg/mL) in potassium phosphate buffer (100 mM; pH 7.5) at 37 degrees C. for 30 min. The reaction was terminated with 30% trichloroacetic acid (TCA) and further incubated at 65 degrees C. for 15 min to fully convert N-formylkynurenine to KYN. The reaction mixture was then centrifuged to remove sediments, and the KYN in the supernatant was measured by UV-visible absorption spectroscopy at 360 nm using a Waters HPLC system fitted with a C-18 column or by LC/MS/MS (C. J. D Austin et. Al, Amino Acid 2009, 565-578).
# Percent inhibition at each concentration of test compounds was determined by determining the decrease in KYN with reference to the reaction control with 1% DMSO vehicle. Data were analyzed using nonlinear regression to generate IC50 values using Graph Pad Prism® 5. Compounds 2 and 184 were tested as described above.
# CT-26 tumor cells [3] = assay: Combination therapy with Doxorubicin in CT-26 syngeneic tumor model; format: in vivo, Balb/c mice; settings: vs DOXO or compound alone
# Protocol: Test compounds were evaluated in mice syngeneic tumor models described above for usefulness in combination therapy with a chemotheraputic agent, Doxorubicin (DOXO, Sterling Biotech, India).
# Tumor bearing Balb/c mice as described earlier were randomized to receive vehicle alone, test compound alone, DOXO alone, or test compound in combination with DOXO. Animals in DOXO treated arm were injected intraperitoneally on day 1 with DOXO formulated in normal saline (7.5 mg/kg). Five days later, the animals were dosed twice a day orally with either a test compound or vehicle alone during the test period till the end of the experiment. A second smaller dose of DOXO at 3 or 4 mg/Kg was administered to the DOXO-treated animals about 3 weeks after the first DOXO dose. Tumor volume was measured in animals as described above.
# Non-limiting examples follow. Test compound 97 was formulated in 40% PEG, 20% PG, 10% DACM in normal saline. From day 5 after the first DOXO dose was administered till the end of the study period on day 35, the animals were dosed twice a day orally with compound 97 (75 mg/kg). Three weeks later, the DOXO-treated animals were injected i.p. with a second dose of DOXO (3 mg/kg). Tumor volume was monitored as described above. Tumor tissues and final blood samples were harvested from the mice 4 hours after the final test compound dose. […]
# [4] = IDO2 Enzyme assay, read-out: IC50 values IDO2
# [5] = IDO2 enzyme assay, read-out: IDO2 IC50
# Human indoleamine 2,3-dioxygenase-2 (hIDO2), sequence (Q6ZQW0 whole entry): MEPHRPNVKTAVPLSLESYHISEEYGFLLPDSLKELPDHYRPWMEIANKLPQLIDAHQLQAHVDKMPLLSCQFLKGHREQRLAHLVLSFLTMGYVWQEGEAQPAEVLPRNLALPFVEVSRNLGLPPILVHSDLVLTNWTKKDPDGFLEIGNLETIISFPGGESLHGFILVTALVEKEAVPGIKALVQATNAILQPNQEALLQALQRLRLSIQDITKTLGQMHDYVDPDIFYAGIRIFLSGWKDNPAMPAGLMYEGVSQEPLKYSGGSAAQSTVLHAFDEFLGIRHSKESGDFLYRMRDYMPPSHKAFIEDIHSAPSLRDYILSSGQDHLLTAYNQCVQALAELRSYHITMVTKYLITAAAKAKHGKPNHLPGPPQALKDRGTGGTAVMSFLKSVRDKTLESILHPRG
SMILES,"tumor growth (CT-26 tumor cells [1]; 40 mg/kg oral BID, over 14 days, vs vehicle)","IC50 [2, 4] [nM]","IC50 [2, 5] [nM]",reduction of tumor growth (CT-26 tumor cells [1]; 75 mg/kg oral BID),"tumor volume, combination with DOXO (CT-26 tumor cells [3]; 75 mg/kg oral BID + DOXO 7.5 then 3 mg/kg i.p.)",reduction of tumor growth (CT-26 tumor cells [1]; 50 mg/kg oral BID),"tumor volume, combination with DOXO (CT-26 tumor cells [3]; 50 mg/kg oral BID + DOXO)"
"Nc1oc2cnccc2c1Nc1ccc(F)c(Cl)c1 [Compound 2, N^3-(3-Chloro-4-fluoro-phenyl)-furo[2,3-c]pyridine-2,3-diamine]",significantly decreased tumor growth,< 1000,< 1000,,,,
"Nc1oc2c(-c3ccncc3)nccc2c1Nc1ccc(F)c(Cl)c1 [Compound 97, N^3-(3-Chloro-4-fluorophenyl)-7-(pyridin-4-yl)furo[2,3-c]pyridine-2,3-diamine]",,,,26%-38,greater reduction in tumor volume,,
"Nc1oc2c(-c3ccncc3)nccc2c1Nc1ccc(F)c(F)c1 [Compound 184, N^3-(3,4-difluorophenyl)-7-(pyridin-4-yl)furo[2,3-c]pyridine-2,3-diamine]",,< 1000,< 1000,,,26%-38,greater reduction in tumor volume

# — US10294212B2 (CURADEV PHARMA PRIVATE LTD., priority 2013, dated 2019)
